Measured values reported in paper PMC3528043, “Synthesis of New N,N’-Bis(5-arylidene-4-oxo-4,5-dihydrothiazolin-2-yl)piperazine Derivatives Under Microwave Irradiation and Preliminary Biological Evaluation” (Scientia Pharmaceutica, 2012).

Assays:
PC3 = assay: Cell survival assay, PC3 (prostate) tumor cell line; format: cell-based; details: Homo sapiens, PC-3; PC3 prostate tumor cells, 48 h exposure, survival by nuclei count; read-out: Cell lines IC50 PC3
NCI = assay: Cell survival assay, NCI (lung) tumor cell line; format: cell-based; details: NCI lung tumor cells, 48 h exposure, survival by nuclei count; read-out: Cell lines IC50 NCI
MDA-MB 231 = assay: Cell survival assay, MDA-MB 231 (breast) tumor cell line; format: cell-based; details: Homo sapiens; MDA-MB 231 breast tumor cells, 48 h exposure, survival by nuclei count; read-out: Cell lines IC50 MDA-MB 231
CDK5/p25 = target: T1, CDK5/p25 (Homo sapiens, UniProt Q00535); assay: In vitro kinase inhibition assay CDK5/p25; format: biochemical; details: for IC50: 15 μM ATP, 30°C, buffer C, histone H1
T1 construct: made in house
T1 sequence (Q00535 whole entry): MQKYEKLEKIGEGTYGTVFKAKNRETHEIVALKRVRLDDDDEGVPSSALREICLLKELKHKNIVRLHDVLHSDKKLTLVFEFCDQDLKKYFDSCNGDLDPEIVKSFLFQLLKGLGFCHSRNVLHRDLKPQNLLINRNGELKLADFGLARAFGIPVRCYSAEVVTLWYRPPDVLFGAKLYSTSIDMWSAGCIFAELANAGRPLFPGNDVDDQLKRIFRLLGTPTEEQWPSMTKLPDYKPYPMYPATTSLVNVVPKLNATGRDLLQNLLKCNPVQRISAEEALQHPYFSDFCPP
T1 sequence (Q15078 99-307 partner limits assumed): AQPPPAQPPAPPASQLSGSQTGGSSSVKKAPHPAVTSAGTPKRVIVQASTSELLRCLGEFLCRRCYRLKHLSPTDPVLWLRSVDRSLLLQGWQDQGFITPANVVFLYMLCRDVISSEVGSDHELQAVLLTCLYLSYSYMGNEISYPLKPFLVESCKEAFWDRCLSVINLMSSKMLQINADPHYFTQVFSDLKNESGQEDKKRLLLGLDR

CLK1 = CLK1 (Homo sapiens, UniProt P49759); assay: In vitro kinase inhibition assay CLK1; format: biochemical; details: for IC50: 15 μM ATP, 30°C, buffer A, RS peptide
Sequence of CLK1 (P49759 whole entry): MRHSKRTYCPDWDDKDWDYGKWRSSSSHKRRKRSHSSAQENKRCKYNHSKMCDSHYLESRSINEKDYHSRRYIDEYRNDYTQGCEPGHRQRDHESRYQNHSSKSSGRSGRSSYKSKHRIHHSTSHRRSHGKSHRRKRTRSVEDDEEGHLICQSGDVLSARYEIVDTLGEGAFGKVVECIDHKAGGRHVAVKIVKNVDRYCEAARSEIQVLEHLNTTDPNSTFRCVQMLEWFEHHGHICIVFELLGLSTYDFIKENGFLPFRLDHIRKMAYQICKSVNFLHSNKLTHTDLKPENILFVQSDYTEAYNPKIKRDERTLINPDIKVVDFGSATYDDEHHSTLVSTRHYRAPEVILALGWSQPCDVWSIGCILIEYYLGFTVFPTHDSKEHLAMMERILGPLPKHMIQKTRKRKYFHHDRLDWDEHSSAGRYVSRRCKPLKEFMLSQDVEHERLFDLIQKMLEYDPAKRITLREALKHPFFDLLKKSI

CLK2 = assay: In vitro kinase inhibition assay CLK2; format: biochemical, human; details: for IC50: 15 μM ATP, 30°C, buffer A, RS peptide
GSK-3α/β = assay: In vitro kinase inhibition assay GSK3α/β; format: biochemical, porcine; details: for IC50: 15 μM ATP, 30°C, buffer A, GS-1 substrate
DYRK1A = DYRK1A (Homo sapiens, UniProt Q13627); assay: In vitro kinase inhibition assay DYRK1A; format: biochemical; details: for IC50: 15 μM ATP, 30°C, buffer A, Woodtide substrate
Huh7 = assay: Cell survival assay, Huh7 (liver) tumor cell line; format: cell-based; details: Homo sapiens, Huh-7; Huh7 liver tumor cells, 48 h exposure, survival by nuclei count; read-out: Cell lines IC50 Huh7
Procedure: (§1) Skin diploid fibroblastic cells were provided by BIOPREDIC International Company (Rennes, France). Caco-2 cells and Huh7 cells were obtained from the ECAC collection. Cells were grown according to ECAC recommendations. The RLEC-F1 clone was derived from an established rat biliary epithelial cell line as previously described. The toxicity test of the compounds on these cells was as follows: 4 × 10^3 cells were seeded in 96 multiwell plates and left for 24 h for attachment, spreading, and growing. Then they were exposed for 48 h to increasing concentrations of the compounds, ranging from […] in a final volume of 80 μL of culture medium. They were then fixed with 4% paraform-aldehyde solution and the nuclei were stained with […] and counted using automated imaging analysis (Simple PCI software).

HCT 116 = assay: Cell survival assay, HCT 116 (colon) tumor cell line; format: cell-based; details: Homo sapiens; HCT 116 colon tumor cells, 48 h exposure, survival by nuclei count; read-out: Cell lines IC50 HCT 116
[1] = system: Skin diploid fibroblastic cells; assay: Cell survival assay, normal fibroblasts; format: cell-based; details: Fibroblast, 48 h exposure, survival by nuclei count, read-out: Cell lines IC50 Fibroblats
Procedure: as §1

Caco2 = assay: Cell survival assay, Caco2 (colon) tumor cell line; format: cell-based; details: Homo sapiens, Caco-2; Caco2 colon tumor cells, 48 h exposure, survival by nuclei count; read-out: Cell lines IC50 Caco2
Procedure: as §1

DYRK2 = target: T2, DYRK2 (Homo sapiens, UniProt Q92630); assay: In vitro kinase inhibition assay DYRK2; format: biochemical; details: for IC50: 15 μM ATP, 30°C, buffer A, Woodtide substrate
T2 sequence (Q92630 1-601): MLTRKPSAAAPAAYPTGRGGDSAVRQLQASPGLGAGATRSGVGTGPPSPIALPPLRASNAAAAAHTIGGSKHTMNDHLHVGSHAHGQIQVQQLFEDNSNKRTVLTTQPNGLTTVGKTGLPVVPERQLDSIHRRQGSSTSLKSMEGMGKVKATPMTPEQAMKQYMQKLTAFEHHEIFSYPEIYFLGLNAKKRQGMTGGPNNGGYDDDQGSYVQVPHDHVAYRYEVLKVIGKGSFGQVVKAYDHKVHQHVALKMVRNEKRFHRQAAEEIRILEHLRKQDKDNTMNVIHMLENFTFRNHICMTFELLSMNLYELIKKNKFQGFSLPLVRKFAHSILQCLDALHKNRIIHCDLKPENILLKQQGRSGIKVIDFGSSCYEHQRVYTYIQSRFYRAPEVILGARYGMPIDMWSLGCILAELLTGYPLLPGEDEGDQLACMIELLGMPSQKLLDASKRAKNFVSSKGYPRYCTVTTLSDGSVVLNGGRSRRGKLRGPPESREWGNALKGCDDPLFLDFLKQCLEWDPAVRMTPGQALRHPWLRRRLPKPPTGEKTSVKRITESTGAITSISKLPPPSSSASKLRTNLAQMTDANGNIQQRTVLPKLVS

Row | SMILES | IC50 (CDK5/p25) [µM] | IC50 (GSK-3α/β) [µM] | IC50 (DYRK1A) [µM] | melting point [°C] | IC50 (PC3) [µM] | IC50 (NCI) [µM] | IC50 (MDA-MB 231) [µM] | IC50 (Huh7) [µM] | IC50 (HCT 116) [µM] | IC50 [1] [µM] | IC50 (Caco2) [µM] | further results
1 | COc1ccc(/C=C2\SC(=S)NC2=O)cc1 [Compound 3b, (5Z)-5-(4-Methoxybenzylidene)-2-thioxo-1,3-thiazolidin-4-one] | > 10 | > 10 | > 10 |  | > 25 | > 25 | > 25 | > 25 | > 25 | > 25 | > 25 | Activity towards CDK5/p25 (in words) (CDK5/p25): inactive; Activity towards CLK1 (in words) (CLK1): inactive; IC50 (CLK1): > 10 µM; Activity towards CLK2 (in words) (CLK2): inactive; IC50 (CLK2): > 10 µM; Activity towards GSK3α/β (in words) (GSK-3α/β): inactive; Activity towards DYRK1A (in words) (DYRK1A): inactive; Activity towards DYRK2 (in words) (DYRK2): inactive; IC50 (DYRK2): > 10 µM
2 | O=C(O)CCN1C(=O)/C(=C/c2ccccc2)SC1=S [Compound 3d, 3-[(5Z)-5-Benzylidene-4-oxo-2-thioxo-1,3-thiazolidin-3-yl]propanoic acid] |  |  |  | 224 to 226 |  |  |  |  |  |  |  | 
3 | O=C1N=C(N2CCN(C3=NC(=O)/C(=C/c4ccc5c(c4)OCO5)S3)CC2)S/C1=C\c1ccc2c(c1)OCO2 [Compound 5c, (5Z,5’Z)-2,2’-(Piperazine-1,4-diyl)bis[5-(1,3-benzodioxol-5-ylmethylene)-1,3-thiazol-4(5H)-one]] |  |  |  |  | 40 | > 25 | > 25 | > 25 | > 25 | 40 | 20 | 
4 | O=C1NC(=S)S/C1=C\c1ccc2c(c1)OCO2 [Compound 3c, (5Z)-5-(1,3-Benzodioxol-5-ylmethylidene)-2-thioxo-1,3-thiazolidin-4-one] | > 10 | 8.5 | 0.07 |  | > 25 | > 25 | > 25 | > 25 | > 25 | > 25 | > 25 | 
5 | O=C(O)CCN1C(=O)/C(=C/c2ccc3c(c2)OCCO3)SC1=S [Compound 3g, 3-[(5Z)-5-(2,3-Dihydro-1,4-benzodioxin-6-ylmethylidene)-4-oxo-2-thioxo-1,3-thiazolidin-3-yl]propanoic acid] |  |  |  | 226 to 228 |  |  |  |  |  |  |  | 

Now from value to molecule, other results behind:

Row | IC50 (CDK5/p25) [µM] | IC50 (GSK-3α/β) [µM] | IC50 (DYRK1A) [µM] | melting point [°C] | SMILES | IC50 (PC3) [µM] | IC50 (NCI) [µM] | IC50 (MDA-MB 231) [µM] | IC50 (Huh7) [µM] | IC50 (HCT 116) [µM] | IC50 [1] [µM] | IC50 (Caco2) [µM] | further results
6 |  |  |  | > 260 | COc1ccc(/C=C2\SC(N3CCN(C4=NC(=O)/C(=C/c5ccc(OC)cc5)S4)CC3)=NC2=O)cc1 [Compound 5b, (5Z,5’Z)-2,2’-(Piperazine-1,4-diyl)bis[5-(4-methoxybenzylidene)-1,3-thiazol-4(5H)-one]] |  |  |  |  |  |  |  | 
7 |  |  |  | > 260 | O=C1N=C(N2CCN(C3=NC(=O)/C(=C/c4ccccc4)S3)CC2)S/C1=C\c1ccccc1 [Compound 5a, (5Z,5’Z)-2,2’-(Piperazine-1,4-diyl)bis(5-benzylidene-1,3-thiazol-4(5H)-one)] | > 25 | > 25 | > 25 | > 25 | > 25 | > 25 | 25 | 
8 | > 10 | > 10 | 0.041 | 220 to 222 | COc1ccc(/C=C2\SC(NCCCN3CCN(CCCNC4=NC(=O)/C(=C/c5ccc(OC)cc5)S4)CC3)=NC2=O)cc1 [Compound 5d, (5Z,5’Z)-2,2’-[Piperazine-1,4-diylbis(propane-3,1-diylimino)]bis[5-(4-methoxybenzylidene)-1,3-thiazol-4(5H)-one]] |  |  |  |  |  |  |  | IC50 (CLK1): 0.5 µM; IC50 (CLK2): 7.7 µM; Activity towards DYRK1A (in words) (DYRK1A): nanomolar inhibition potency; IC50 (DYRK2): 0.6 µM
9 |  |  |  | 222 to 224 | O=C1N=C(NCCCN2CCN(CCCNC3=NC(=O)/C(=C/c4ccc5c(c4)OCO5)S3)CC2)S/C1=C\c1ccc2c(c1)OCO2 [Compound 5e, (5Z,5’Z)-2,2’-[Piperazine-1,4-diylbis(propane-3,1-diylimino)]bis[5-(1,3-benzodioxol-5-ylmethylene)-1,3-thiazol-4(5H)-one]] |  |  |  |  |  |  |  | 
